Laboratory results published in patent publication US20140011853A1, “SUBSTITUTED 3-(BIPHENYL-3-YL)-8,8-DIFLUORO-4-HYDROXY-1-AZASPIRO[4.5]DEC-3-EN-2-ONES FOR THERAPY” (BAYER INTELLECTUAL PROPERTY GMBH, priority 2011, published 2014).
Several values for one entry are separate records, joined by “and”; a condition that tells them apart may be missing. Equal values may be shown once.

What was measured:
Tetranychus urticae = test: Tetranychus test, OP-resistant (TETRUR spray treatment); format: in vivo; conditions: Tetranychus urticae, 144 h, read-out: effect (kill of spider mites)
[1] = Octanol/water distribution coefficient (logP/D), isocratic HPLC method; format: physicochemical; conditions: pH 7.4
Description: Assay for Determining the Octanol/Water Distribution Coefficient (logP/D):
The distribution coefficient octanol/water P or D is a key parameter for estimating membrane penetration and permeability. It is defined as the ratio of the equilibrium concentrations of a substance in the two-phase system octanol/water.
It is usually stated in form of the decadic logarithm (logP or logD).
logP describes the distribution behaviour of a substance exclusively present in its neutral form. logD describes the distribution behaviour of a substance at a certain pH; depending on the ionization constant pKa of the substance, some of the substance may be present in ionic form, and some in neutral form.
The logP/D of the active compounds was determined using an isocratic HPLC method (HPLC=high performance liquid chromatography) (literature: OECD Guideline for Testing of Chemicals No. 117). The method is based on the correlation of the HPLC retention time of the test substance to that of reference substances with known distribution coefficients.
The test substance was employed as a 10 mM solution in DMSO (DMSO=dimethyl sulphoxide). 10 μl of this solution were made up to 100 μl with a methanol/water mixture in a ratio of 7+3.
The nine reference substances were dissolved individually in methanol. 100 μl each of the stock solutions were added to an HPLC vial and mixed with 300 μl of water.
A formamide solution was used to determine the hold-up time. To this end, 7 mg of formamide were dissolved in 10 ml of methanol. 100 μl of this stock solution were mixed with 500 μl of methanol and 200 μl of water.
All solutions were chromatographed using a flow rate of 1.00 ml/min.
Injection Protocol: formamide, references, test substance 1, test substance 2, . . . , formamide, references.
Evaluation of the retention times was carried out in a diode array detector (DAD) at 200-400 nm Via the molecular mass, the identity of the test substance was checked using the downstream mass spectrometer.
The HPLC run was evaluated using the Waters software Masslynx 4.1.
The logP/D values were calculated using the software “POW Determination” (proprietary development).

Myzus persicae = test: Myzus test (MYZUPE spray treatment); format: in vivo; conditions: Myzus persicae, 144 h, read-out: effect (kill of aphids)
Description: Disks of Chinese cabbage (Brassica pekinensis) infested by all stages of the green peach aphid (Myzus persicae) are sprayed with an active compound formulation of the desired concentration.

MCF7 = test: Tumour cell proliferation, CellTiter-Glo, 96-hour incubation, MCF7; format: cell-based; conditions: Homo sapiens, MCF7, 96 h, read-out: MCF7 IC50
Experimental: In accordance with the invention, the substances were tested in cell-based assays for the ability of the substances of inhibiting tumour cell proliferation after a 96-hour incubation with the substance. Cell viability was tested using the CellTiter-Glo® luminescent cell viability assay (Promega). The cells were sown at a density of 2000-5000 cells/well (depending on the cell line) in 100 μl growth medium on 96-well microtiter plates. For each cell line examined, cells were sown on a separate plate to determine the luminescence at t=0 hours and t=96 hours. After overnight incubation at 37° C., the luminescence values for the t=0 samples were determined. The dose plates for the t=96 hours points in time were treated with substances diluted with growth medium. The cells were then incubated at 37° C. for 96 hours, and the luminescence values for the t=96 hours samples were then determined. For data analysis, the t=0 values were subtracted from the t=96 hours values for treated and untreated samples. The differences in luminescence in percent between substance-treated samples and control values were used to determine the growth inhibition in percent.
The substances were tested in the following cell lines which represent the stated indications in an exemplary manner: […]

human ACC1 = target: T1, human ACC1 (Homo sapiens, UniProt Q13085); test: Human ACC1 enzyme assay (ADP-Glo); format: biochemical; conditions: ACC 1 IC50, individual measurements
T1 construct: FLAG (C); made in house; host or cells: baculovirus-infected insect cells (Hi5)

SMILES | pest or weed control at 100 g/ha (Tetranychus urticae) | chromatographic logP [1] | pest or weed control at 500 g/ha (Myzus persicae) | IC50 (MCF7) | IC50 (human ACC1)
Cc1ccc(-c2ccc(Cl)c(F)c2)cc1C1=C(O)C2(CCC(F)(F)CC2)NC1=O [Example 1-1, 3-(4′-Chloro-3′-fluoro-4-methylbiphenyl-3-yl)-8,8-difluoro-4-hydroxy-1-azaspiro[4.5]dec-3-en-2-one] | 90% | 1.9 | 90% | 22 nM | 117 nM and 125 nM and 69 nM and 95 nM and 58 nM and 97 nM and 53 nM and 54 nM
Cc1ccc(-c2ccc(Cl)cc2)cc1C1=C(O)C2(CCC(F)(F)CC2)NC1=O [Example 1-2, 3-(4′-Chloro-4-methylbiphenyl-3-yl)-8,8-difluoro-4-hydroxy-1-azaspiro[4.5]dec-3-en-2-one] | 100% | 1.73 | 100% | 30 nM | 68 nM and 80 nM and 99 nM and 109 nM and 72 nM and 65 nM and 135 nM and 153 nM
